Our source for the K values is ChEMBL document CHEMBL6127099, “Stimuli-responsive prodrugs with self-immolative linker for improved cancer therapy” (Eur J Med Chem, 2024).

The data set deals with NAD(P)H dehydrogenase [quinone] 1 (Homo sapiens, UniProt P15559). As to the kind of experiment: Prodrug activation assessed as NQO1 (unknown origin)-mediated RSSH release by measuring rate constant.
Chain of NAD(P)H dehydrogenase [quinone] 1 (P15559 whole entry): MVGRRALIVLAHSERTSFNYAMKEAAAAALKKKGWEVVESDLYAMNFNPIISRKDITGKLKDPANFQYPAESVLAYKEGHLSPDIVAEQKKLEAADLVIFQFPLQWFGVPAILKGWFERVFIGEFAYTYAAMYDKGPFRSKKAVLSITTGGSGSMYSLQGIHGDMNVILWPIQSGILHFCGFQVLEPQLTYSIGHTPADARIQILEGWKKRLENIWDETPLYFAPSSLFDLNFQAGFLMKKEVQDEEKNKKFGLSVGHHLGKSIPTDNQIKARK
Consider `CN1CCN(C)C1=O`, for which the K is 0.212 min⁻¹.

On to `Cc1c(C)c2c(c(C)c1O)C(C)(C)CC(=O)O2`, for which the K was determined as 0.32 min⁻¹.

In the case of `COC(=O)[C@H](NC(C)=O)C(C)(C)SSCc1ccc(N(C)C(=O)CC(C)(C)C2=C(C)C(=O)C(C)=C(C)C2=O)cc1`, the K is 0.162 min⁻¹.

For `COC(=O)[C@H](NC(C)=O)C(C)(C)SSC(=O)N(C)CCN(C)C(=O)CC(C)(C)C1=C(C)C(=O)C(C)=C(C)C1=O`, the K worked out at 0.17 min⁻¹.
